The target in the test is T1, RhaL1 (α-L-rhamnosidase from Alternaria sp. L1) (Alternaria sp. L1, UniProt H6UY33).
T1 construct: recombinant, secreted from Pichia pastoris GS115 (vector pPIC9K, SnaBI/NotI), N-glycosylated; about 120 kDa on SDS-PAGE, about 85 kDa after PNGase F
T1 sequence (H6UY33 20-681): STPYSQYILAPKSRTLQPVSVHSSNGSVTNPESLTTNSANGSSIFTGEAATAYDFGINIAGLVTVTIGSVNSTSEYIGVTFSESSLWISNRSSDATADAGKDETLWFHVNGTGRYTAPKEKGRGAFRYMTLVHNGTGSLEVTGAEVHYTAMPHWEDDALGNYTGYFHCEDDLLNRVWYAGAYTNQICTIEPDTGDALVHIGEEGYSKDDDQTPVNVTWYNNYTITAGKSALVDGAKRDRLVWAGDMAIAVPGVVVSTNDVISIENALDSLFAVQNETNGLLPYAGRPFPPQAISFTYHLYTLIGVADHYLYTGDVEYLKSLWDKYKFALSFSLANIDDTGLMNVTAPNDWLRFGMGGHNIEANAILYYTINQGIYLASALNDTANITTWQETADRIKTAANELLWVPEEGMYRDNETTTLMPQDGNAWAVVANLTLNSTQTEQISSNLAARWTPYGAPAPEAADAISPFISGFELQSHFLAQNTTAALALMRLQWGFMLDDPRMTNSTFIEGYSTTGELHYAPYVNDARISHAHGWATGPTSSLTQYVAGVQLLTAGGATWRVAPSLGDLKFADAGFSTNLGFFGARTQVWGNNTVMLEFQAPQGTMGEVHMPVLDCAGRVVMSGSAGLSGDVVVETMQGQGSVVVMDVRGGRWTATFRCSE
Put plainly: reverse hydrolysis; HPLC, product by ESI-MS and NMR. To be noted: glycosyl donor, acceptor D-mannitol (also D-fructose, esculin); pH 6.5, 55 °C, 48 h. The class given is biochemical.

This is an account of results in article PMC4624630, “Enzymatic Synthesis of Rhamnose Containing Chemicals by Reverse Hydrolysis” (PLoS ONE, 2015).

Molecules are shown by their SMILES.

`C[C@@H]1OC(O)[C@H](O)[C@H](O)[C@H]1O` (stereo partly drawn) [L-rhamnose]: the “reverse hydrolysis; HPLC, product by ESI-MS and NMR” value was “synthesized by the recombinant RhaL1 using L-rhamnose as the glycosyl donor and mannitol as the acceptor”.
